From patent publication US6136323A, “Bacterial plasmin receptors as fibrinolytic agents” (University of Florida Research Foundation, Inc., priority 1994, dated 2000)

How the values were obtained:
[1] = system: plasmin bound to strain 64/14; assay: Preparative elution of bound labeled plasmin from strain 64/14 with lysine; assay type: binding, group A streptococcus; conditions: 20 mM lysine in VBS-gel, room temperature, 30 min
Experimental: Plasmin which had been bound to and eluted from strain 64/14 by treatment with lysine was also examined in similar binding studies. Eluted plasmin was obtained by incubating 2 ml of stock 10% wet weight/volume bacterial suspension (strain 64/14) with approximately 20 μg of labeled plasmin at room temperature for 45 min. This suspension was centrifuged at 1000 g for 10 min and washed once with 10 ml of VBS-gel, and the radioactivity associated with the bacterial pellet was measured. The pellet was then resuspended in VBS-gel containing 20 mM lysine and incubated at room temperature for 30 min. The suspension was centrifuged and the supernatant recovered. Approximately 90% of the radioactivity originally associated with the bacterial pellet was dissociated by the lysine treatment. The dissociated plasmin in the supernatant was the subjected to gel filtration of a G-25 column to separate lysine from plasmin. Fractions containing plasmin were collected and stored at -20 C.

[2] = system: plasmin prebound to the group A streptococcus; assay: Dissociation of prebound plasmin from bacteria by amino acids; conditions: compared with concentration inhibiting binding by 50%
Experimental: The ability of EACA, lysine, or arginine to dissociate bound plasmin from the bacteria was examined in the following manner. Labeled plasmin was incubated with 10^7 bacteria in VBS-gel containing no amino acid at 37 C for 15 min. The bacteria were pelleted by centrifugation and washed twice with 2 ml on VBS-gel. After determining the radioactivity associated with the bacteria, the pellets were resuspended in solutions of VBS-gel containing varying concentrations of amino acid (pH 7.0) as described above. The mixtures were incubated at 37 C for 15 min and washed twice with VBS-gel containing the appropriate amino acid concentration. The radioactivity associated with the bacteria in duplicate experiments was again measured and the percentage dissociated was calculated.

[3] = target: binding of plasmin to the group A streptococcus 64/14; assay: Inhibition of plasmin binding to bacteria by amino acids; conditions: pH 7.0, 37 C, 15 min, strain 64/14; read-out: concentration giving fifty percent inhibition of binding of plasmin to the bacteria
Experimental: Labeled plasmin (100 μl containing approximately 2×10^4 cpm) was added to 200 μl VBS-gel containing varying concentrations of epsilon-aminocaproic acid (EACA), lysine, or arginine, and incubated at 37 C for 15 min. The pH of each solution was 7.0. One hundred μl of VBS-gel containing 10^7 bacteria (strain 64/14) were then added and the mixture was incubated at 37 C for 15 min. The bacterial suspensions were centrifuged at 1000 g for 7 min and washed twice with 2 ml of VBS-gel containing the same concentration of amino acid present during the incubation period. The percent inhibition of binding was calculated for duplicate experiments by comparison with binding in VBS-gel alone.

[4] = system: Mr 48,000 plasminogen activator protein from strain 64/14; assay: Western blot probed with 125I-human plasmin in presence or absence of EACA; assay type: binding, group A streptococcus; conditions: addition of EACA (1.0 mM)
Experimental: (§1) Gels intended for Western blotting were equilibrated in 25 mM Tris, 0.2 M glycine pH 8.0 containing 20% v/v methanol (electroblot buffer) for 25 minutes. Protein blotting, from SDS-PAGE gels, was performed using the `Trans-Blot SD Semi-Dry` electrophoretic transfer cell (Bio Rad, Richmond, Calif.). Blots were blocked as described for the dot-blot procedure, and probed for 3-4 hours at room temperature with radiolabeled human plasmin in either the presence or absence of 1.0 mM EACA, to identify functionally active protein bands. In studies of antigenic properties of these proteins, blots were probed with rabbit anti-plasmin receptor antibody or anti-group C streptokinase antibody by incubation with […] IgG per ml of probing solution (approximately a 1:3000 dilution of antisera) for three hours and probed with ^125 I-streptococcal protein G containing 3×10^4 cpm/ml. For probing with mouse monoclonal antibodies specific for epitopes on group C streptokinase, blots were probed with a 1:100 dilution of the monoclonal antibody stock solution for three hours, followed by probing with goat antibody specific for mouse IgG at 1.0 μg/ml, followed by probing with ^125 I-streptococcal protein G containing 3×10^4 cpm/ml. Blots were then washed with 0.01 M EDTA pH 7.3, containing 1.0 M NaCl, 0.25% gelatin, 0.15% Tween 20. […]

group C streptokinase = assay: as above; assay type: binding, group C streptococci; conditions: addition of EACA (1.0 mM)
Experimental: as §1

[5] = system: Mr ≈41,000 dalton plasmin binding protein of strain 64/14; assay: as above; set-up: species or system group A streptococcus; conditions: 1.0 mM EACA
Experimental: as §1

[6] = system: group A streptococcus 64/14; assay: Effect of pH and ionic strength on binding of labeled plasmin(ogen) to bacteria
Experimental: To assess the effect of pH on the bacterium: plasmin (ogen) interaction, 50 μl of labeled plasminogen of plasmin (approximately 2×10^4 cpm) were added to 1.0 ml of VBS containing 0.05% Tween-20 adjusted to the appropriate pH. After 15 min at room temperature, 50 μl of VBS containing approximately 10^7 bacteria (strain 64/14) were added and the mixture was incubated at 37 C for 15 min. The bacterial suspensions were centrifuged at 1000 g for 7 min to separate bacteria from unbound labeled proteins and the pellets were washed twice with 2 ml of VBS at the appropriate pH. The radioactivity associated with the bacterial pellet in duplicate experiments was measured using a Beckman 5500 autogamma counter.
To assess the effect of ionic strength on the bacterium:plasmin (ogen) interaction, similar studies were carried out in solutions containing different concentrations of NaCl with 0.05% Tween-20. The bacterial pellets were washed in the appropriate NaCl concentration to remove unbound labeled proteins.

plasminogen = plasminogen (Homo sapiens, UniProt P00747); assay: Plasminogen activator activity of separated proteins; assay type: biochemical
human plasmin = target: T1, human plasmin (Homo sapiens, UniProt P00747); assay: Western blot probed with 125I-labeled human plasmin (plasmin binding activity); conditions: SDS-PAGE
T1 construct: from tissue
Experimental: PAGE and protein blotting. SDS-polyacrylamide gel electrophoresis (PAGE) was carried out with a 10% (wt/vol) polyacrylamide separating gel and a 4% (wt/vol) polyacrylamide stacking gel according to the method of Laemmli (Laemmli, U.K. [1970] Nature 227:680-685). Gels for Western blotting (immunoblotting) were equilibrated, and separated proteins were transferred by methods described previously (Broder et al. [1991], supra). For studies of plasmin binding, nitrocellulose membranes were blocked for 1 hour at room temperature in NET-gel buffer. The blots were then incubated for 2 hours at room temperature with ^125 I-human plasmin to identify plasmin-binding protein bands (Broder et al., supra). The blots were washed in NET-gel and subjected to autoradiography at -70 C.
Gels intended for Western blotting were equilibrated in 25 mM Tris, 0.2 M glycine pH 8.0 containing 20% v/v methanol (electroblot buffer) for 25 minutes. Protein blotting, from SDS-PAGE gels, was performed using the `Trans-Blot SD Semi-Dry` electrophoretic transfer cell (Bio Rad, Richmond, Calif.). Blots were blocked as described for the dot-blot procedure, and probed for 3-4 hours at room temperature with radiolabeled human plasmin in either the presence or absence of 1.0 mM EACA, to identify functionally active protein bands. […]

[7] = system: group A streptococci strain 64/14; assay: Effect of Ca2+ and Mg2+ on binding of radiolabeled plasmin to bacteria; set-up: species or system group A streptococcus; conditions: VBS-gel with 0.00015 M Ca2+ and 0.001 M Mg2+ vs metal free VBS-gel with 0.15 M EDTA
Experimental: Bindings of radiolabeled plasmin to group A streptococci strain 64/14 was studied in the following buffers: (1) VBS-gel containing 0.00015 M Ca^2+ and 0.001 M Mg^2+, or (2) metal free VBS-gel containing 0.15 M ethylenediaminetetraacetic acid (EDTA). In each case 400 μl of buffer was added to 100 μl of VBS-gel containing approximately 10^7 bacteria and 100 μl of VBS-gel containing 3×10^4 cpm of radiolabeled plasmin. After incubation at 37 C for 15 minutes, the mixtures were centrifuged at 1000 g for 7 min to separate bacteria from unbound radiolabel, the pellets were washed twice with 2 ml of the appropriate buffer, and radioactivity associated with the bacterial pellet in duplicate experiments was measured.

plasminogen, sequence (P00747 20-810 limits assumed): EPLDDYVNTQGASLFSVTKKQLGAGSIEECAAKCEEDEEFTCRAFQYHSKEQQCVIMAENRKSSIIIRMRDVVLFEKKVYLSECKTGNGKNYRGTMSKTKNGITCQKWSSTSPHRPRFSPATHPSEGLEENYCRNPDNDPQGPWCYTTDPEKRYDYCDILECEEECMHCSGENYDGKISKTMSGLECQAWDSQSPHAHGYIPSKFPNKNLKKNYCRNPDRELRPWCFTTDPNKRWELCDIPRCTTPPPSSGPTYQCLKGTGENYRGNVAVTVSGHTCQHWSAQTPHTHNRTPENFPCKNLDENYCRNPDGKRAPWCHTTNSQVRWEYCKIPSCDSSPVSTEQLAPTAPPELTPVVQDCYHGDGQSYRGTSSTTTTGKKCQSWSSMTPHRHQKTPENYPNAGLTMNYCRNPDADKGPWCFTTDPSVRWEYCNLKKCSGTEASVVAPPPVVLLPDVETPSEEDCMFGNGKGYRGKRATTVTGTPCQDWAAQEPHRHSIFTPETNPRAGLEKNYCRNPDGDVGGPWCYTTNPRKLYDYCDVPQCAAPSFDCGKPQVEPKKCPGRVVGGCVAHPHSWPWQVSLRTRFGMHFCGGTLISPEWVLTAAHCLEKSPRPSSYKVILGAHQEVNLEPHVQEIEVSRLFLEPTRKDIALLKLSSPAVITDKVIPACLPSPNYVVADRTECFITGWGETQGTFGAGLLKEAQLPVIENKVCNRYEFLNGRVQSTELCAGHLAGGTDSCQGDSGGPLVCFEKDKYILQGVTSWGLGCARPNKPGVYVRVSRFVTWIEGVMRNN

## NCCCC[C@H](N)C(=O)O [lysine]
[1]
  radioactivity originally associated with the bacterial pellet dissociated: Approximately 90%
[2]
  concentration of amino acid required to elute 50% of the bound plasmin: approximately equivalent
[3]
  IC50: 2 mM

## NCCCCCC(=O)O [EACA, epsilon-aminocaproic acid]
[4]
  effect on binding of plasmin to the Mr 48,000 plasminogen activator protein from strain 64/14: no effect
Group C streptokinase
  effect on binding of plasmin to the reference group C streptokinase molecule: no effect
[5]
  effect on binding of 125I-labeled human plasmin to the Mr ≈41,000 dalton protein in concentrated culture supernatant of strain 64/14: inhibited
  effect on plasmin binding activity of Mr ≈41,000 dalton band in the mutanolysin extract of strain 64/14: reduced significantly
[2]
  concentration of amino acid required to elute 50% of the bound plasmin: approximately equivalent
[3]
  IC50: 0.15 mM

## plasminogen
[6]; 0.1 to 0.4 M NaCl
  fraction bound to bacteria: less than 10%
[6]; entire pH range tested (pH 5-9)
  direct binding of offered counts to the bacteria: less than 10%
[6]; ionic strength below 0.075 M NaCl
  binding to the bacteria at low ionic strength: significant binding

## N=C(N)NCCC[C@H](N)C(=O)O [arginine]
[2]
  concentration of amino acid required to elute 50% of the bound plasmin: approximately equivalent
[3]
  IC50: 25 mM

B1: plasmin receptor: Mr ≈41,000 dalton plasmin binding protein extracted with mutanolysin from group A streptococcal strain 64/14 (protein)
chain: MVVKVGINGFGRIGRLAFRRIQNIEGVEVTRINDLTDPNMLAHLLKYDTTQGRFDGTVEVKEGGFEVNGNFIKVSAERDPENIDWATDGVEIVLEATGFFAKKEAAEKHLHANGAKKVVITAPGGNDVKTVVFNTNHDILDGTETVISGASCTTNCLAPMAKALHDAFGIQKGLMTTIHAYTGDQMILDGPHRGGDLRRARAGAANIVPNSTGAAKAIGLVIPELNGKLDGAAQRVPVPTGSVTELVVTLDKNVSVDEINSAMKAASNDSFGYTEDPIVSSDIVGVSYGSLFDATQTKVMEVDGSQLVKVVSWYDNEMSYTAQLVRTLEYFAKIAK
plasminogen; affinity purified protein
  plasminogen activating potential: lacked any plasminogen activating potential
plasminogen; extracted (mutanolysin) preparation from strain 64/14
  plasminogen activator activity: no plasminogen activator activity
Human plasmin
  binding of 125I-labeled human plasmin on blot: capable of binding to human plasmin
Human plasmin; listed as Mr ≈41,000 dalton protein
  binding of 125I-labeled human plasmin on blot: retained fractional plasmin binding activity

B2: plasmin: Human plasmin generated from radiolabeled plasminogen by incubation with urokinase (protein, UniProt P00747 20-580; P00747 581-810, looked up)
Plasmin heavy chain A: EPLDDYVNTQGASLFSVTKKQLGAGSIEECAAKCEEDEEFTCRAFQYHSKEQQCVIMAENRKSSIIIRMRDVVLFEKKVYLSECKTGNGKNYRGTMSKTKNGITCQKWSSTSPHRPRFSPATHPSEGLEENYCRNPDNDPQGPWCYTTDPEKRYDYCDILECEEECMHCSGENYDGKISKTMSGLECQAWDSQSPHAHGYIPSKFPNKNLKKNYCRNPDRELRPWCFTTDPNKRWELCDIPRCTTPPPSSGPTYQCLKGTGENYRGNVAVTVSGHTCQHWSAQTPHTHNRTPENFPCKNLDENYCRNPDGKRAPWCHTTNSQVRWEYCKIPSCDSSPVSTEQLAPTAPPELTPVVQDCYHGDGQSYRGTSSTTTTGKKCQSWSSMTPHRHQKTPENYPNAGLTMNYCRNPDADKGPWCFTTDPSVRWEYCNLKKCSGTEASVVAPPPVVLLPDVETPSEEDCMFGNGKGYRGKRATTVTGTPCQDWAAQEPHRHSIFTPETNPRAGLEKNYCRNPDGDVGGPWCYTTNPRKLYDYCDVPQCAAPSFDCGKPQVEPKKCPGR
Plasmin light chain B: VVGGCVAHPHSWPWQVSLRTRFGMHFCGGTLISPEWVLTAAHCLEKSPRPSSYKVILGAHQEVNLEPHVQEIEVSRLFLEPTRKDIALLKLSSPAVITDKVIPACLPSPNYVVADRTECFITGWGETQGTFGAGLLKEAQLPVIENKVCNRYEFLNGRVQSTELCAGHLAGGTDSCQGDSGGPLVCFEKDKYILQGVTSWGLGCARPNKPGVYVRVSRFVTWIEGVMRNN
modifications: Plasmin radiolabeled
notes: Human plasmin generated from radiolabeled plasminogen by incubation with urokinase
[7]
  amount bound by the bacteria, effect of divalent cations: the same in the presence or absence of divalent cations
[6]; maximal binding, between pH 5 and 8, about 10^7 bacteria, 37 C, 15 min
  counts offered being bound by the group A streptococcus 64/14: approximately 60%
